Data on 55 molecules can be found in US7094911B2, “Biphenyl and biphenyl-analogous compounds as integrin antagonists” (Bayer Aktiengesellschaft, priority 1998, dated 2006).

Molecules are shown by their SMILES.

For `Cc1cc(C)c(S(=O)(=O)N[C@@H](Cc2ccc(-c3cccc(NC(=O)NCC(F)(F)C(F)(F)F)c3)cc2)C(=O)O)c(C)c1` [Example 1.211], the melting point (in general, the temperature, or range, at which the solid turns liquid) was 126 °C.
The figure for `Cc1cc(C)c(S(=O)(=O)N[C@@H](Cc2ccc(-c3cccc(NC(=O)/N=c4\[nH]c5ccc(C(=O)O)cc5[nH]4)c3)cc2)C(=O)O)c(C)c1` [Example 1.189] is 256 °C (dec.).
For `CCNC(=O)Nc1cccc(-c2ccc(OC)c(S(=O)(=O)NC(CC(=O)O)c3ccccc3)c2)c1` (stereo not shown) [Example 4.73] the value was more than 250 °C; for `COc1ccc(-c2ccc(NC(=O)NCc3ccncc3)cc2)cc1S(=O)(=O)NC(CC(=O)O)c1ccccc1` (stereo not shown) [Example 4.66], 145 °C.
The figure for `Cc1cc(C)c(S(=O)(=O)N[C@@H](Cc2ccc(-c3cccc(Nc4c(NCc5ccccc5)c(=O)c4=O)c3)cc2)C(=O)O)c(C)c1` [Example 13.4] is 226 °C (dec.).
As to `Cc1cc(C)c(S(=O)(=O)N[C@@H](Cc2ccc(-c3cccc(Nc4c(NC5CC5)c(=O)c4=O)c3)cc2)C(=O)O)c(C)c1` [Example 13.1.3, (2S)-3-(3′-{[2-(cyclopropylamino)-3,4-dioxo-1-cyclobuten-1-yl]-amino}[1,1′-biphenyl]-4-yl)-2-[(mesitylsulfonyl)amino]-propanoic acid], the melting point came to 164 °C.
For `CCCCNC(=O)Nc1ccc(-c2ccc(OC)c(S(=O)(=O)NC(CC(=O)O)c3ccccc3)c2)cc1` (stereo not shown) [Example 4.65] the value was 125 °C; for `COc1ccc(-c2cccc(CNc3nc4ccccc4[nH]3)c2)cc1S(=O)(=O)NC(CC(=O)O)c1ccccc1` (stereo not shown) [Example 18.5], more than 240 °C.
Consider `O=C(O)[C@H](Cc1ccc(-c2cccc(CNc3ccccn3)c2)cc1)NS(=O)(=O)c1c(F)cccc1F` [Example 18.12], for which the melting point is more than 240 °C.
`Cc1cc(C)c(S(=O)(=O)N[C@@H](Cc2ccc(-c3cccc(Nc4nc5ccccc5[nH]4)c3)cc2)C(=O)O)c(C)c1` [Example 16.1.3, (2S)-3-[3′-(1H-benzimidazol-2-ylamino)[1,1′-biphenyl]-4-yl]-2-[(mesitylsulfonyl)amino]propanoic acid]: the melting point is 190 °C (dec.).
With `O=C(O)CC(NS(=O)(=O)c1cccc(-c2cccc(Nc3c(NC4CC4)c(=O)c3=O)c2)c1)c1ccccc1` (stereo not shown) [Example 13.7], the melting point is 214 °C (dec.).
For `CCCNC(=O)Nc1ccc(-c2ccc(OC)c(S(=O)(=O)NC(CC(=O)O)c3ccccc3)c2)cc1` (stereo not shown) [Example 4.98] the value was 116 °C; for `O=C(O)CC(NS(=O)(=O)c1cccc(-c2cccc(NC(=O)NC3CC3)c2)c1)c1cccnc1` (stereo not shown) [Example 4.39], 144 °C.
For `Cc1cc(C)c(S(=O)(=O)N[C@@H](Cc2ccc(-c3cccc(NC(=O)NCCSC(F)(F)F)c3)cc2)C(=O)O)c(C)c1` [Example 1.207] the value was 138 °C; for `O=C(O)[C@H](Cc1ccc(-c2cccc(CNc3ccccn3)c2)cc1)NS(=O)(=O)c1ccc(Cl)s1` [Example 18.14], more than 240 °C.
`O=C(O)CNS(=O)(=O)c1cccc(-c2cccc(Nc3c(NC4CC4)c(=O)c3=O)c2)c1` [Example 13.2]: the melting point was 204 °C (dec.).
Take `O=C(O)CC(NS(=O)(=O)c1cccc(-c2cccc(Nc3c(Nc4nc5ccccc5[nH]4)c(=O)c3=O)c2)c1)c1ccccc1` (stereo not shown) [Example 13.6]: the melting point was 191 °C (dec.).
The figure for `COc1ccc2[nH]/c(=N\C(=O)Nc3cccc(-c4ccc(OC)c(S(=O)(=O)NC(CC(=O)O)c5ccccc5)c4)c3)[nH]c2c1` (stereo not shown) [Example 4.105] is more than 240 °C; for `COc1ccc(-c2cccc(CNc3ccccn3)c2)cc1S(=O)(=O)NC(CC(=O)O)c1ccccc1` (stereo not shown) [Example 18.3] it is 138 °C; for `CS(=O)(=O)N[C@@H](Cc1ccc(-c2cccc(Nc3c(NC4CC4)c(=O)c3=O)c2)cc1)C(=O)O` [Example 13.9] it is 210 °C (dec.).
In turn, `C[C@H](NS(=O)(=O)c1cccc(-c2cccc(NC(=O)N=c3[nH]c4ccccc4[nH]3)c2)c1)C(=O)O` [Example 4.80] came in with a melting point of 218 °C.
The figure for `COc1ccc(-c2ccc(NC(=O)N=c3[nH]c4ccccc4[nH]3)cc2)cc1S(=O)(=O)NC(CC(=O)O)c1ccccc1` (stereo not shown) [Example 4.74] is 209 °C; for `O=C(O)CC(NS(=O)(=O)c1cccc(-c2cccc(NC(=O)NCc3ccccn3)c2)c1)c1cccnc1` (stereo not shown) [Example 4.40] it is 176 °C.
For `Cc1cc(C)c(S(=O)(=O)N[C@@H](Cc2ccc(-c3cccc(NC(=O)Nc4nncs4)c3)cc2)C(=O)O)c(C)c1` [Example 1.204] the value was 202 °C.
The figure for `O=C(O)[C@H](Cc1ccc(-c2cccc(CNc3ccccn3)c2)cc1)NS(=O)(=O)Cc1ccc(F)cc1` [Example 18.10] is more than 240 °C; for `CCNC(=O)Nc1ccc(-c2ccc(OC)c(S(=O)(=O)NC(CC(=O)O)c3ccccc3)c2)cc1` (stereo not shown) [Example 4.71] it is 134 °C.
`COc1ccc2[nH]/c(=N\C(=O)Nc3cccc(-c4ccc(C[C@H](NS(=O)(=O)c5c(C)cc(C)cc5C)C(=O)O)cc4)c3)[nH]c2c1` [Example 1.188]: the melting point turned out to be 215 °C.
Molecule `COc1ccc(-c2ccc(NC(=O)Nc3cccnc3)cc2)cc1S(=O)(=O)NC(CC(=O)O)c1ccccc1` (stereo not shown) [Example 4.75] yielded a melting point of 188 °C.
The figure for `COc1ccc(-c2cccc(NC(=O)NCc3ccc(C(F)(F)F)cc3)c2)cc1S(=O)(=O)NC(CC(=O)O)c1ccccc1` (stereo not shown) [Example 4.102] is more than 240 °C; for `CCCCNC(=O)Nc1cccc(-c2cccc(S(=O)(=O)N[C@H](CC(=O)O)c3ccccc3)c2)c1` [Example 4.94] it is 152 °C; for `Cc1cc(C)c(S(=O)(=O)NC(Cc2cccc(-c3ccc(NC(=O)N=c4[nH]c5ccccc5[nH]4)cc3)c2)C(=O)O)c(C)c1` (stereo not shown) [Example 1.202] it is 193 °C.
For `Cc1cc(C)c(S(=O)(=O)N[C@@H](Cc2ccc(-c3cccc(NC(=O)N=c4[nH]c5ccccc5[nH]4)c3)cc2)C(=O)O)c(C)c1` [Example 1.210] the value was 207 °C; for `CC1(C)[C@H]2CCC1(CS(=O)(=O)N[C@@H](Cc1ccc(-c3cccc(N/C(=N/C#N)NC4CC4)c3)cc1)C(=O)O)C(=O)C2` [Example 10.5], 178 °C; for `CCCCNC(=O)Nc1cccc(-c2ccc(OC)c(S(=O)(=O)NC(CC(=O)O)c3ccccc3)c2)c1` (stereo not shown) [Example 4.63], 190 °C.
The figure for `COc1ccc(-c2ccc(NC(=O)NC(C)C)cc2)cc1S(=O)(=O)NC(CC(=O)O)c1ccccc1` (stereo not shown) [Example 4.68] is 115 °C; for `COc1ccc(-c2cccc(NC(=O)NCc3ccc(F)cc3)c2)cc1S(=O)(=O)N[C@@H](CC(=O)O)c1ccccc1` [Example 4.97] it is 162 °C; for `O=C(O)C[C@@H](NS(=O)(=O)c1cccc(-c2cccc(NC(=O)NCc3cccnc3)c2)c1)c1ccccc1` [Example 4.92] it is 126 °C.
For `Cc1cc(C)c(S(=O)(=O)N[C@@H](Cc2ccc(-c3cccc(NC(=O)N=c4[nH]c5cc(C)c(C)cc5[nH]4)c3)cc2)C(=O)O)c(C)c1` [Example 1.190], the melting point came to 202 °C.
Regarding `COc1ccc(-c2cccc(NC(=O)NCc3cccnc3)c2)cc1S(=O)(=O)N[C@H](CC(=O)O)c1ccccc1` [Example 4.89], the melting point was 224 °C (dec.).
The figure for `COc1ccc(-c2cccc(NC(=O)N=c3[nH]cc[nH]3)c2)cc1S(=O)(=O)NC(CC(=O)O)c1ccccc1` (stereo not shown) [Example 4.86] is 209 °C; for `O=C(O)[C@H](Cc1ccc(-c2cccc(CNc3ccccn3)c2)cc1)NS(=O)(=O)c1ccc(F)cc1` [Example 18.8] it is more than 240 °C.
In turn, `COc1ccc(-c2ccc(NC(=O)NCCc3ccccn3)cc2)cc1S(=O)(=O)NC(CC(=O)O)c1ccccc1` (stereo not shown) [Example 4.64] displayed a melting point of 137 °C.
`CC1(C)C2CC[C@@]1(CS(=O)(=O)N[C@@H](Cc1ccc(-c3ccc(NC(=O)N=c4[nH]c5ccccc5[nH]4)cc3)cc1)C(=O)O)C(=O)C2` [Example 1.215]: the melting point amounted to 222 °C.
For `Cc1cc(C)c(S(=O)(=O)N[C@@H](Cc2ccc(-c3cccc(NC(=O)Nc4nc5cc(Cl)ccc5o4)c3)cc2)C(=O)O)c(C)c1` [Example 1.195] the value was 220 °C; for `COc1ccc(-c2cccc(NC(=O)Nc3nncs3)c2)cc1S(=O)(=O)NC(CC(=O)O)c1ccccc1` (stereo not shown) [Example 4.106], more than 240 °C; for `COc1ccc(-c2cccc(NC(=O)/N=c3\[nH]c4ccc(C(=O)O)cc4[nH]3)c2)cc1S(=O)(=O)NC(CC(=O)O)c1ccccc1` (stereo not shown) [Example 4.103], more than 240 °C.
The figure for `Cc1cc(C)c(S(=O)(=O)N[C@@H](Cc2ccc(-c3cccc(NC(=O)c4cccnc4)c3)cc2)C(=O)O)c(C)c1` [Example 19.4] is more than 240 °C.
For `Cc1cc(C)c(S(=O)(=O)N[C@@H](Cc2ccc(-c3cccc(N/C(=N/C#N)NCc4ccccc4)c3)cc2)C(=O)O)c(C)c1` [Example 10.8] the value was 169 °C; for `COc1ccc(-c2cccc(NC(=O)Nc3nccs3)c2)cc1S(=O)(=O)NC(CC(=O)O)c1ccccc1` (stereo not shown) [Example 4.99], more than 240 °C.
`CCCNC(=O)Nc1cccc(-c2cccc(S(=O)(=O)N(C)CC(=O)O)c2)c1` [Example 6.12] came in with a melting point of 90 °C.
For `COc1ccc(-c2ccc(NC(=O)NCC(C)C)cc2)cc1S(=O)(=O)NC(CC(=O)O)c1ccccc1` (stereo not shown) [Example 4.72] the value was 126 °C; for `Cc1cc(C)c(S(=O)(=O)N[C@@H](Cc2ccc(-c3cccc(N)c3)cc2)C(=O)O)c(C)c1` [Example 1.205], 289 °C; for `Cc1cc(C)c(S(=O)(=O)N[C@@H](Cc2ccc(-c3cccc(NC(=O)Nc4nc5ccc(C)cc5s4)c3)cc2)C(=O)O)c(C)c1` [Example 1.199], 220 °C.
The molecule `COc1ccc(-c2cccc(NC(=O)c3ccc[nH]3)c2)cc1S(=O)(=O)NC(CC(=O)O)c1ccccc1` (stereo not shown) [Example 19.3] showed a melting point of 234 °C.
`C[C@@H](NS(=O)(=O)c1cccc(-c2cccc(NC(=O)Nc3ccncc3)c2)c1)C(=O)O` [Example 4.84]: the melting point stood at 169 °C.
